Article PMC4723341, “Ribonuclease H/DNA Polymerase HIV-1 Reverse Transcriptase Dual Inhibitor: Mechanistic Studies on the Allosteric Mode of Action of Isatin-Based Compound RMNC6” (PLoS ONE, 2016)

How the values were obtained:
[1] = biological target: T1, HIV-1 RT-associated RDDP activity, P225A RT (Human immunodeficiency virus type 1 group M subtype B, UniProt P04585, P812A); experiment: biochemical; design: species or system HIV-1 group M subtype B
T1 construct: The 1:1 ration between the p66/p51 subunits was also verified; made in house; host or cells: E. coli M15

[2] = biological target: T2, HIV-1 RT-associated RDDP activity, P226A RT (Human immunodeficiency virus type 1 group M subtype B, UniProt P04585, P813A); experiment: biochemical; design: species or system HIV-1 group M subtype B
T2 construct: The 1:1 ration between the p66/p51 subunits was also verified; made in house; host or cells: E. coli M15

[3] = UV spectra in the absence and presence of magnesium (chelating potential); type: physicochemical; conditions: in the presence of 6 mM MgCl2
Excerpt: Since the mode of action of previously identified dual RT inhibitors was not determined, we decided to investigate the mechanism of RT inhibition by RMNC6 in comparison with available RNase H inhibitors and NNRTIs. […] RNase H inhibitors such as vynologous ureas (VUs) are known to destabilize the RT heterodimer by binding to an allosteric pocket in the RNase H domain at the interface between p66 and p51 subunits.

[4] = biological target: T3, HIV-1 RT-associated RDDP activity, G231A RT (Human immunodeficiency virus type 1 group M subtype B, UniProt P04585, G818A); experiment: biochemical; design: species or system HIV-1 group M subtype B
T3 construct: The 1:1 ration between the p66/p51 subunits was also verified; made in house; host or cells: E. coli M15

N#Cc1ccc(-c2csc(NN=C3C(=O)Nc4ccccc43)n2)cc1 [RMNC6, (Z)-4-(2-(2-(2-oxoindolin-3-ylidene)hydrazinyl)thiazol-4-yl)benzonitrile]
IC50 [1]: 3.1 ± 0.3 µM | Fold of increase of RDDP IC50 with respect to wt RT ([1]; P225A RT): 0.3 | IC50 [2]: 18.9 ± 0.7 µM | Fold of increase of RDDP IC50 with respect to wt RT ([2]; P226A RT): 1.9 | Shift of maximum of absorbance (UV spectra) [3]: did not shift | IC50 [4]: 10.8 ± 2.4 µM | Fold of increase of RDDP IC50 with respect to wt RT ([4]; G231A RT): 1.1
